Read-outs that look alike come from different tables or passages of the source.
Legend:
[1] = system: PC3 (p53−) (Prostate Adenocarcinoma); test: Cell viability analysis, prostate cancer PC3; format: cell-based, human
[2] = system: TSGH-8301 (Urinary Bladder Carcinoma); test: Cell viability analysis, bladder cancer TSGH-8301; format: cell-based, human
[3] = system: MCF7 (Mammary Gland, Adenocarcinoma); test: Cell viability analysis, breast cancer MCF7; format: cell-based, human
[4] = system: HepG2 (Hepatocellular Carcinoma); test: Cell viability analysis, hepatic cancer HepG2; format: cell-based, human
[5] = system: A375 (Amelanotic Melanoma); test: Cell viability analysis, skin cancer A375; format: cell-based, human
[6] = system: HeLa (Cervix Adenocarcinoma); test: Cell viability analysis, cervical cancer HeLa; format: cell-based, human
[7] = system: A549 (Lung Adenocarcinoma); test: Cell viability analysis, lung cancer A549; format: cell-based, human
[8] = system: MKN-45 (Gastric Adenocarcinoma); test: Cell viability analysis, gastric cancer MKN-45; format: cell-based, human
[9] = system: HI650 (Lung Adenocarcinoma); test: Cell viability analysis, lung cancer HI650; format: cell-based, human
[10] = system: HL-60 (Acute Promyelocytic Leukemia); test: Cell viability analysis, leukemia HL-60; format: cell-based, human
[11] = system: AGS (Gastric Adenocarcinoma); test: Cell viability analysis, gastric cancer AGS; format: cell-based, human
[12] = system: LoVo (Colorectal Adenocarcinoma); test: Cell viability analysis, colon cancer LoVo; format: cell-based, human
[13] = system: HCT116 (p53+) (Colorectal Carcinoma)
[14] = system: SAS (Tongue squamous cell carcinoma); test: Cell viability analysis, tongue cancer SAS; format: cell-based, human; settings: SAS; repeated experiment
cancer cell lines = test: Cell viability analysis (WST-1) on cancer cell lines; format: cell-based, human; settings: drug 10 μM, 72 hours, WST-1; Table 3
AsPC-1 = test: Cell viability analysis, pancreatic cancer AsPC-1; format: cell-based, human; settings: AsPC-1; repeated experiment
[15] = system: BCC (basal cell carcinoma); test: Cell viability analysis, skin cancer BCC; format: cell-based, human; settings: BCC; repeated experiment
U-2OS = test: Cell viability analysis, osteosarcoma U-2OS; format: cell-based, human; settings: U2OS; repeated experiment
BxPC-3 = test: Cell viability analysis, pancreatic cancer BxPC-3; format: cell-based, human; settings: BxPC-3; repeated experiment
[16] = drug 10 μM, 72 hours, WST-1, OD450 nm

CCn1cc(C(=O)O)c(=O)c2cc(F)c(N3CCNC(C)C3)c(F)c21.Cl (stereo not shown) [Lomefloxacin HCl (Maxaquin)]
cell viability (survival rate), PC3 [1]: 63.3
cell viability (survival rate), TSGH [2]: 61.2
cell viability (survival rate), MCF7 [3]: 83.5
cell viability (survival rate), HepG2 [4]: 90.5
cell viability (survival rate), A375 [5]: 87.7
cell viability (survival rate), HeLa [6]: 135.0
cell viability (survival rate), A549 [7]: 70.7
cell viability (survival rate), MKN-45 [8]: 92.7
cell viability (survival rate), H1650 [9]: 56.6
cell viability (survival rate), HL-60 [10]: 96.5
cell viability (survival rate), AGS [11]: 77.5
cell viability (survival rate), LoVo [12]: 88.9
cell viability (survival rate), HCT116 [13]: 113.4

CC1(C)S[C@@H]2[C@H](NC(=O)[C@H](N)c3ccc(O)cc3)C(=O)N2[C@H]1C(=O)[O-].[Na+] [Amoxicillin sodium (Amox), Amoxicillin sodium]
The results of antibiotic drug inhibiting cancer cell lines (cell viability analysis), PC-3 ([1]; PC-3, repeated experiment): 127.2
cell viability (survival rate), PC3 [1, 16]: 74.8
The results of antibiotic drug inhibiting cancer cell lines (cell viability analysis), TSGH-8301 ([2]; TSGH-8301, repeated experiment): 129.6
cell viability (survival rate), TSGH [2, 16]: 45.4
The results of antibiotic drug inhibiting cancer cell lines (cell viability analysis), SAS [14]: 66.94
inhibition effect on different cancer cell lines (cancer cell lines): significant inhibition effect
The results of antibiotic drug inhibiting cancer cell lines (cell viability analysis), AsPC-1 (AsPC-1): 88.13
The results of antibiotic drug inhibiting cancer cell lines (cell viability analysis), BCC [15]: 115.1
cell viability (survival rate), MCF7 [3, 16]: 60.4
The results of antibiotic drug inhibiting cancer cell lines (cell viability analysis), HepG2 ([4]; HepG2, repeated experiment): 124.5
cell viability (survival rate), HepG2 [4, 16]: 80.8
The results of antibiotic drug inhibiting cancer cell lines (cell viability analysis), A375 ([5]; A375, repeated experiment): 115.9
cell viability (survival rate), A375 [5, 16]: 78.5
The results of antibiotic drug inhibiting cancer cell lines (cell viability analysis), U2OS (U-2OS): 65.21
The results of antibiotic drug inhibiting cancer cell lines (cell viability analysis), BxPC-3 (BxPC-3): 71.08
The results of antibiotic drug inhibiting cancer cell lines (cell viability analysis), HeLa ([6]; HeLa, repeated experiment): 112.6
cell viability (survival rate), HeLa [6, 16]: 81.0
cell viability (survival rate), A549 [7, 16]: 60.6
The results of antibiotic drug inhibiting cancer cell lines (cell viability analysis), MKN-45 ([8]; MKN-45, repeated experiment): 110.7
cell viability (survival rate), MKN-45 [8, 16]: 63.2
The results of antibiotic drug inhibiting cancer cell lines (cell viability analysis), H1650 ([9]; H1650, repeated experiment): 87.81
cell viability (survival rate), H1650 [9, 16]: 43.3
The results of antibiotic drug inhibiting cancer cell lines (cell viability analysis), AGS ([11]; AGS, repeated experiment): 128.2
cell viability (survival rate), AGS [11, 16]: 51.2
cell viability (survival rate), LoVo [12, 16]: 69.1
viability [13]: 112%

O=C([O-])C(O)[C@H](O)[C@@H](O)[C@H](O)[C@H](O)CO.O=C([O-])C(O)[C@H](O)[C@@H](O)[C@H](O)[C@H](O)CO.[Ca+2] (stereo partly shown) [Calcium Gluceptate]
cell viability (survival rate), PC3 [1, 16]: 37.91
cell viability (survival rate), TSGH [2, 16]: 33.81
cell viability (survival rate), MCF7 [3, 16]: 34.24
cell viability (survival rate), HepG2 [4, 16]: 76.88
cell viability (survival rate), A375 [5, 16]: 36.97
cell viability (survival rate), HeLa [6, 16]: 43.93
cell viability (survival rate), A549 [7, 16]: 24.91
cell viability (survival rate), MKN-45 [8, 16]: 74.23
cell viability (survival rate), H1650 [9, 16]: 54.25
cell viability (survival rate), HL-60 [10, 16]: 113.4525
cell viability (survival rate), AGS [11, 16]: 79.67
cell viability (survival rate), LoVo [12, 16]: 55.29
cell viability (survival rate), HCT116 ([13]; drug 10 μM, 72 hours, WST-1, OD450 nm, head HCT116 / HCT116(WT)): 74.09

Source: US10105357B2, “Indication of antibiotic drugs for preparation of cancer inhibition pharmaceutical composition” (LAUNX BIOMEDICAL CO., LTD., priority 2014, dated 2018)
